Values quoted from earlier work, collected in US7820159B2, “MN/CA IX and EGFR pathway inhibition” (Instiute of Virology of the Slovak Academy of Sciences, priority 2006, dated 2010).

Columns and labels:
tumor xenograft models = conditions: in vivo
MEK = conditions: non-ATP competitive allosteric inhibitors, unlike the majority of ATP-competitive analogs
[1] = not given; remark: listed apart in the source
MN = molecular target: T1, MN (Homo sapiens, UniProt Q16790); conditions: patients
T1 construct: Phase I and II clinical trials of an MN-specific drug, Rencarex®; host or cells: endogenous MN/CA IX in human trial patients

[2] = patients

Row | Molecule | Anti-tumor activity in tumor xenograft models (tumor xenograft models) | Selectivity for MEK in biochemical assays (MEK) | Solubility compared with CI-1040 | Metabolic stability compared with CI-1040 [1] | Tolerability in Phase I and II clinical trials (MN) | Drug-related side effects in Phase I and II clinical trials [2]
1 | Cn1cnc2c(F)c(Nc3ccc(Br)cc3Cl)c(C(=O)NOCCO)cc21 [ARRY-142886] | potent anti-tumor activity | high selectivity for MEK |  |  |  | 
2 | O=C(NOC[C@H](O)CO)c1ccc(F)c(F)c1Nc1ccc(I)cc1F [PD-0325901] | potent anti-tumor activity |  | more soluble | improved |  | 
3 | Rencarex®: an MN-specific drug tested in Phase I and II clinical trials |  |  |  |  | well-tolerated | no serious drug-related side effects
